Counter-ions that a name gives are not always drawn.

This experiment addresses T1, human thrombin (Homo sapiens, UniProt P00734).
T1 construct: 0.2-0.5 nM human thrombin or human factor Xa; purchased Enzyme Research Laboratories, South Bend, Ind
Description: Inhibition of thrombin hydrolysis of chromogenic substrate S2238 (Ki). It counts as biochemical. The following applies: S2238, pH 7.5. The protocol: The effectiveness of compounds of the present invention as inhibitors of blood coagulation proteases was determined using purified human proteases and synthetic substrates following procedures similar to those described in Kettner et al. (1990).
For these assays, the rate of enzymatic (thrombin, Factor Xa, and Factor VIIa) hydrolysis of chromogenic substrates (S2238 (H-D-Phe-Pip-Arg-pNA), S2222, and S2288, respectively; Kabi Pharmacia, Franklin, Ohio) was measured both in the absence and presence of compounds of the present invention. […] A decrease in the rate of absorbance change at 405 nm in the presence of inhibitor is indicative of enzyme inhibition. The results of this assay are expressed as inhibitory constant, Ki.
Thrombin and Xa determinations were made in 0.10M sodium phosphate buffer, pH 7.5, containing 0.20M NaCl, and 0.5% PEG 8000. VIIa determinations were made in 0.05M tris buffer, pH 7.6, containing 0.10M NaCl, 4 mM CaCl2, and 0.1% bovine serum albumin.
Reactions were allowed to go for 30 minutes and the velocities (rate of absorbance change vs time) were measured in the time frame of 25-30 minutes. The following relationship was used to calculate Ki values. [formula] where: vo is the velocity of the control in the absence of inhibitor;
vs is the velocity in the presence of inhibitor;
I is the concentration of inhibitor;
Ki is the dissociation constant of the enzyme: inhibitor complex;
S is the concentration of substrate;
Km is the Michaelis constant.

Take “Boc--(D)Phe--Pro--boroOrn(COCH3)--C10 H16 [Example 123]”: the Ki (in general, the dissociation constant of the complex between target and ligand, obtained from inhibition or displacement) was less than 500 nM.
Then `CCCS(=O)(=O)N[C@H](Cc1ccccc1)C(=O)N1CCC[C@H]1C(=O)N[C@@H](CCCNC=N)B(O)O` [Example 63, CH3 CH2 CH2 SO2 --(D)Phe--Pro--boroOrn(CH=NH)--OH.HCl], with less than 500 nM.
Next, “H--(D)Phe--Pro--boroOrn(CH=NH)]--C10 H16.0.5 HCl.0.5 BSA [Example 8]”: less than 500 nM; “Hydrocinnamoyl-Pro--boroIrg(CH2 CH=CH2)--OH.HBr [Example 49]”: more than 500000 nM.
Next, `CC(=O)NC(Cc1ccccc1)C(=O)N(C)CC(=O)NC(CCCNC=N)B(O)O` (stereo not shown) [Example 67, Ac--(D)Phe--Sar--boroOrn(CH=NH)--OH.HCl]: less than 500 nM; `CC1(C)C2CC3OB(C(Cc4cccc(C#N)c4)NC(=O)C4CCCN4C(=O)CSc4ccncc4)OC3(C)C1C2` (stereo not shown) [Example 43, (4-Pyridylthio)acetyl-Pro--boroPhe(m-CN)--C10 H16]: less than 500 nM; `CC(=O)N[C@H](Cc1ccccc1)C(=O)N1CCC[C@H]1C(=O)NC(CCCCC#N)B1OC2CC3CC(C3(C)C)C2(C)O1` (stereo partly shown) [Example 1, Ac--(D)Phe--Pro--NH--CH[(CH2)4 CN]BO2 C10 H16]: less than 50000 nM.
`CC(=O)NC(Cc1ccccc1)C(=O)N1CCCC1C(=O)NC(Cc1cccc(CN)c1)B1OC2CC3CC(C3(C)C)C2(C)O1` (stereo not shown) [Example 13, Ac--(D)Phe--Pro--boroPhe--(m-CH2NH2)--C10 H16.HCl] showed a Ki of less than 500 nM.
Next, `CC(C)(C)OC(=O)NC(Cc1ccccc1)C(=O)N1CCCC1C(=O)NC(CCCNC(N)=O)B1OC2CC3CC(C3(C)C)C2(C)O1` (stereo not shown) [Example 108, Boc--(D)Phe--Pro--boroOrn(CONH2)--C10 H16]: less than 500 nM.
Next, `CC(=O)N[C@H](Cc1ccccc1)C(=O)N1CCC[C@H]1C(=O)N[C@@H](Cc1cccc(Br)c1)B1O[C@@H]2C[C@@H]3C[C@@H](C3(C)C)[C@]2(C)O1` [Example 14, Ac--(D)Phe--Pro--boroPhe(m-Br)--C10 H16]: less than 500 nM.
Then `CC(C)(C)OC(=O)NC(Cc1ccccc1)C(=O)N1CCCC1C(=O)NC(Cc1cccc(C#N)c1)B1OC2CC3CC(C3(C)C)C2(C)O1` (stereo not shown) [Example 17, Boc--(D)Phe--Pro--boroPhe(m-CN)--C10 H16], with less than 500 nM; and “Ac--(D)--Phe--Pro--boroGly[(CH2)3 --OCH3 ]--C10 H16 [Example 137]”, with less than 50000 nM.
`CNC(=NC#N)NCCCC(NC(=O)C1CCCN1C(=O)C(Cc1ccccc1)NC(=O)OC(C)(C)C)B1OC2CC3CC(C3(C)C)C2(C)O1` (stereo not shown) [Example 105, Boc--(D)Phe--Pro--boroOrn--[C(NCN)NHCH3]--C10 H16] came in with an inhibition constant (Ki) of less than 500 nM.
`CC1(C)C2CC3OB(C(CCCNS(C)(=O)=O)NC(=O)[C@@H]4CCCN4C(=O)[C@@H](Cc4ccccc4)NS(=O)(=O)Cc4ccccc4)OC3(C)C1C2` (stereo partly shown) [Example 120, PhCH2 SO2 --(D)Phe--Pro--boroOrn(N-Methanesulfonyl)-C10 H16] displayed an inhibition constant (Ki) of less than 500 nM.
Next, `CCOCCCC(NC(=O)C1CCCN1C(=O)C(Cc1ccccc1)NC(=O)OC(C)(C)C)B1OC2CC3CC(C3(C)C)C2(C)O1` (stereo not shown) [Example 121, Boc--(D)Phe--Pro--boroGly[(CH2)3 --OCH2 CH3]--C10 H16]: less than 500 nM; `COCCCC(NC(=O)[C@@H]1CCCN1C(=O)[C@@H](Cc1ccccc1)NC(=O)[C@@H]1CCCN1)B1OC2CC3CC(C3(C)C)C2(C)O1` (stereo partly shown) [Example 145, H--Pro--(D)--Phe--Pro--boroGly[(CH2)3 --OCH3]--C10 H16]: less than 500 nM.
Next, `CC1(C)C2CC3OB(C(CCCNS(C)(=O)=O)NC(=O)C4CCCN4C(=O)C(Cc4ccccc4)NS(C)(=O)=O)OC3(C)C1C2` (stereo not shown) [Example 116, Methanesulfonyl-(D)Phe--Pro--boroOrn(N-Methanesulfonyl)-C10 H16]: less than 500 nM.
For `CC(C)(C)OC(=O)NC(Cc1ccccc1)C(=O)N1CCCC1C(=O)NC(CCCC#N)B1OC2CC3CC(C3(C)C)C2(C)O1` (stereo not shown) [Example 122, Boc--(D)Phe--Pro--boroGly[(CH2)3 --CN]--C10 H16], the Ki was less than 50000 nM.
Next, `CN(CC(=O)NC(Cc1cccc(C#N)c1)B1OC2CC3CC(C3(C)C)C2(C)O1)C(=O)C(Cc1ccccc1)NC(=O)OC(C)(C)C` (stereo not shown) [Example 73, Boc--(D)Phe--Sar--boroPhe(m-CN)--C10 H16]: less than 500 nM; `CC(C)(C)OC(=O)N[C@H](Cc1ccccc1)C(=O)N1CCCC1C(=O)NC(CC1CCC(O)CC1)B1OC2CC3CC(C3(C)C)C2(C)O1` (stereo partly shown) [Example 127, Boc--(D)Phe--Pro--NH--CH[CH2 (4-hydroxy-cyclohexyl)]BO2 --C10 H16]: less than 500 nM.
Then “CH3 (CH2)3 SO2 --(D)Phe--Pro--boroArg(CH3)--OH.HCl [Example 65]”, with less than 500 nM; and `CC(=O)NC(Cc1ccccc1)C(=O)N1CCCC1C(=O)NC(Cc1ccc(CN)cc1)B1OC2CC3CC(C3(C)C)C2(C)O1` (stereo not shown) [Example 21, Ac--(D)Phe--Pro--boroPhe(p-CH2 NH2)--C10 H16.BSA], with less than 500 nM; and `COC(=O)C(Cc1cccc(C#N)c1)NC(=O)C1CCCN1C(=O)C(Cc1ccccc1)NC(=O)OC(C)(C)C` [Example 129, Boc--(D)Phe--Pro--(R)Phe(mCN)--OMe], with less than 500 nM.
Next, `CC(C)(C)OC(=O)N[C@H](Cc1ccccc1)C(=O)N1CCC[C@H]1C(=O)NC(CCCNC=N)B1OC2CC3CC(C3(C)C)C2(C)O1` (stereo partly shown) [Example 6, Boc--(D)Phe--Pro--boroOrn(CH=NH)]--C10 H16.0.5 HCl.0.5 BSA]: less than 500 nM; `CC(C)(C)OC(=O)NC(Cc1ccccc1)C(=O)N1CCCC1C(=O)NC(CCCNC(=O)CO)B1OC2CC3CC(C3(C)C)C2(C)O1` (stereo not shown) [Example 112, Boc--(D)Phe--Pro--boroOrn(COCH2 OH)--C10 H16]: less than 500 nM; `CC(C)(C)OC(=O)N[C@H](Cc1ccccc1)C(=O)N1CCCC1C(=O)NC(CCCNS(C)(=O)=O)B1OC2CC3CC(C3(C)C)C2(C)O1` (stereo partly shown) [Example 113, Boc--(D)Phe--Pro--boroOrn(N-Methanesulfonyl)--C10 H16]: less than 500 nM.
The compound “Hydrocinnamoyl-Pro--boroIrg(CH3)--OH.HBr [Example 50]” registered a Ki of less than 50000 nM.
Then `COC(=O)c1cccc(CC(NC(=O)C2CCCN2C(=O)C(N)Cc2ccccc2)B2OC3CC4CC(C4(C)C)C3(C)O2)c1` (stereo not shown) [Example 135, H--(D)Phe--Pro--boroPhe(mCOOMe)--C10 H16.HCl], with less than 500 nM; and `CC1(C)C2CC3OB(C(CCCNS(C)(=O)=O)NC(=O)C4CCCN4C(=O)[C@@H](Cc4ccccc4)NCC(=O)O)OC3(C)C1C2` (stereo partly shown) [Example 119, HOOCCH2 --(D)Phe--Pro--boroOrn(N-Methanesulfonyl)-C10 H16.HCl], with less than 500 nM.
Turning to “PhSO2 --(D)Phe--Pro--boroArg(CH3)--OH.HCl [Example 58]”, the Ki was less than 500 nM.
In turn, “Hydrocinnamoyl-Pro--boroArg(CH3)--OH.HCl [Example 55]” displayed a Ki of less than 500 nM.
Then “Ac--(D)Phe--Pro--boroIrg(CH3)--OH.HBr [Example 52]”, with less than 500 nM; and `CC(C)(C)OC(=O)NC(Cc1ccccc1)C(=O)N1CCC1C(=O)NC(Cc1cccc(C#N)c1)B1OC2CC3CC(C3(C)C)C2(C)O1` (stereo not shown) [Example 46, Boc--(D)Phe--Aze--boroPhe(m-CN)--C10 H16], with less than 500 nM; and `CC1(C)C2CC3OB(C(Cc4cccc(C#N)c4)NC(=O)C4CCN4C(=O)C(N)Cc4ccccc4)OC3(C)C1C2` (stereo not shown) [Example 47, H--(D)Phe--Aze--boroPhe(m-CN)--C10 H16.HCl], with less than 500 nM.
On to “PhCH2 SO2 --(D)Phe--Pro--boroOrn(CH=NH)--OH.HCl [Example 62]”, for which the Ki is less than 500 nM.
For the compound `COCCCC(NC(=O)C1CCCN1C(=O)C(Cc1ccccc1)NC(=O)OC(C)(C)C)B1OC2CC3CC(C3(C)C)C2(C)O1` (stereo not shown) [Example 138, Boc--(D)--Phe--Pro--boroGly[(CH2)3 --OCH3]--C10 H16], the Ki was less than 500 nM.
Next, `CC(=O)Nc1ccc(S(=O)(=O)NC(Cc2ccccc2)C(=O)N2CCCC2C(=O)NC(CCCNS(C)(=O)=O)B2OC3CC4CC(C4(C)C)C3(C)O2)cc1` (stereo not shown) [Example 115, 4-(N-Acetyl)Anilinesulfonyl-(D)Phe--Pro--boroOrn(N-Methanesulfonyl)-C10 H16]: less than 500 nM; `N#Cc1cccc(CC(NC(=O)C2CCCN2C(=O)C(N)Cc2ccccc2)B(O)O)c1` (stereo not shown) [Example 19, H--(D)Phe--Pro--boroPhe(m-CN)--OH.HCl]: less than 500 nM; `COCCCC(NC(=O)C1CCCN1C(=O)C(Cc1ccccc1)NC(=O)CNC(C)=O)B1OC2CC3CC(C3(C)C)C2(C)O1` (stereo not shown) [Example 144, Ac--Gly--(D)--Phe--Pro--boroGly[(CH2)3 --OCH3]--C10 H16]: less than 500 nM.
Next, `CC(C)(C)OC(=O)NC(Cc1ccccc1)C(=O)N1CCCC1C(=O)NC(CC1CCC(N=C(N)N)CC1)B1OC2CC3CC(C3(C)C)C2(C)O1` (stereo not shown) [Example 128, Boc--(D)Phe--Pro--NH--CH[CH2 (4-guanidino-cyclohexyl)]BO2 --C10 H16]: less than 500 nM.

The record behind these values is US5658885A, “Amidino and guanidino substituted boronic acid inhibitors of trypsin-like enzymes” (The DuPont Merck Pharmaceutical Company, priority 1994, dated 1997).
